| logP | SMILES |
| --- | --- |
| 0.3 | CCNC(=O)c1cccc2c1C(=O)C(=O)N(CC)C2=O |
| 2.08 | CC(C)CN1C(=O)C(=O)c2ccccc2C1=O |
| -0.5 | CCN1C(=O)C(=O)c2c(C(N)=O)cccc2C1=O |
| 0.9 | CCN1C(=O)C(=O)c2c(OC)cccc2C1=O |
| 0.94 | CCN1C(=O)C(=O)c2cccc(OC)c2C1=O |
| 1.6 | CC(C)N1C(=O)C(=O)c2ccccc2C1=O |
| 2.18 | CCCCN1C(=O)C(=O)c2ccccc2C1=O |
| 0.41 | CCN1C(=O)C(=O)c2c(C#N)cccc2C1=O |
| 2.46 | CCN1C(=O)C(=O)c2cc3ccccc3cc2C1=O |
| 0.82 | CCN1C(=O)C(=O)c2c(cccc2[N+](=O)[O-])C1=O |
| 1.14 | O=C1C(=O)N(c2ccccc2)C(=O)c2ccccc21 |
| 1.23 | CCN1C(=O)C(=O)c2c(OC)cc(OC)cc2C1=O |
| 1.49 | CCN1C(=O)C(=O)c2ccc(OC)cc2C1=O |
| 1.31 | CCOC(=O)c1cccc2c1C(=O)C(=O)N(CC)C2=O |
| 0.6 | CN1C(=O)C(=O)c2ccccc2C1=O |
| 1.31 | CCN1C(=O)C(=O)c2cc(OC)c(OC)cc2C1=O |
| 2.15 | CCC(C)N1C(=O)C(=O)c2ccccc2C1=O (configuration not stated) |
| 1.79 | CCN1C(=O)C(=O)c2ccc(Cl)cc2C1=O |
| 1.13 | CCN1C(=O)C(=O)c2ccccc2C1=O |
| 0.78 | CCN(CC)C(=O)c1cccc2c1C(=O)C(=O)N(CC)C2=O |
| 1.43 | CCN1C(=O)C(=O)c2c(Cl)cccc2C1=O |
| 1.6 | CCCN1C(=O)C(=O)c2ccccc2C1=O |

From the SangsterLogP compilation
